In patent publication US20120165576A1, “USE OF ERYTHRITOL FOR THE PREVENTION OR TREATMENT OF HYPERTENSION” (priority 2009, published 2012):
Entries after “also recorded” stand apart in the source; their conditions may differ. Where two headings read alike, the source gives them in different places. Marks after values point to notes of the source that are not given here.

How the values were obtained:
[1] = system: sections of thoracic aorta (aortic rings); assay: Aorta reactivity measurements: isolated aortic rings of rats after 21 days of erythritol in drinking water; type: in vivo, Wistar rats; conditions: for CAR: relaxation induced by 100 μM carbachol / PE: Contraction induced by 10 μM phenylephrine / SNP: Relaxation induced by 100 μM SNP after stable response to 100 μM carbachol / Tot. relax: Relaxation induced by 100 μM carbachol followed by 100 μM SNP / SNP fraction: Contribution of 100 μM SNP to the total relaxation: 1 g erythritol/kg/day in drinking water, 21 days, mean ± SEM
[2] = system: red blood cell suspension; assay: AAPH-induced hemolysis of a red blood cell suspension; type: cell-based; conditions: erythritol 0-50 mM, AAPH 50 mM, 37° C., FIG. 3
[3] = system: manganese superoxide dismutase (SOD2); assay: SOD2 expression in endothelial cells by qPCR; type: cell-based; conditions: human umbilical vein endothelial cells (CRL-1730), erythritol 5 mM, 24 hours
Protocol: The exposure of endothelial cells to erythritol results in a increase in manganese superoxide dismutase (SOD2) transcription (FIG. 4). Cultured human umbilical vein endothelial cells (CRL-1730, which are available from ATCC) were incubated under standard conditions with erythritol (5 mM, 24 hours). Exposure to erythritol induced or stimulated a 9.4 fold increase in the expression of SOD2 as determined by qPCR (FIG. 4).
After incubation, RNA was isolated from Qiazol suspended cells according to the manufacturer's protocol and quantified using a nanodrop. Reverse transcription reaction was performed using 500 ng of total RNA, which was reverse-transcribed into cDNA using iScript™ cDNA synthesis kit. Next, real time PCR was performed with a BioRad MyiQ iCycler Single Color RT-PCR detection system using Sensimix™ Plus SYBR and Fluorescein, 5 μl diluted (10×) cDNA, and 0.3 μM primers in a total volume of 25 μl. PCR was conducted as follows: denaturation at 95° C. for 3 minutes, followed by 40 cycles of 95° C. for 15 seconds and 60° C. for 45 seconds. After PCR a melt curve (60-95° C.) was produced for product identification and purity. β-actin was included as internal control. Data were analysed using the MyIQ software system (Biorad) and were expressed as relative gene expression (fold change) using the 2^ΔΔCt method.

[4] = cited from earlier work
[5] = cited from earlier work; remark: listed apart in the source
[6] = group DE: STZ diabetic rats, N = 4
[7] = group NE: normoglycemic rats, N = 5
[8] = clinical testing, oral consumption

## OCC(O)C(O)CO (stereo not shown) [erythritol, 1,2,3,4-butanetetrol]
[1]; diabetic rats consuming erythritol (DE), 1 g/kg/day, compared with normoglycemic rats
  Relaxation response of aortic rings to carbachol (in words): essentially the same as the relaxation response of normoglycemic rats; also recorded: identical to that observed in the normoglycemic rats; also recorded: higher and at the same level as found in the aortic rings of the rats of groups N and NE
[1]; [6]
  CAR: relaxation induced by 100 μM carbachol: 0.61 ± 0.07 g
  PE: Contraction induced by 10 μM phenylephrine: 0.60 ± 0.07 g
  SNP: Relaxation induced by 100 μM SNP after stable response to 100 μM carbachol: 0.14 ± 0.03 g
  Tot. relax: Relaxation induced by 100 μM carbachol followed by 100 μM SNP: 0.75 ± 0.09 g
[1]; group DE: STZ diabetic rats, N = 4, p < 0.05 compared to D
  SNP fraction: Contribution of 100 μM SNP to the total relaxation: 17.8 ± 3.1^b %
[1]; [7]
  CAR: relaxation induced by 100 μM carbachol: 0.60 ± 0.07 g
  PE: Contraction induced by 10 μM phenylephrine: 0.70 ± 0.06 g
  SNP fraction: Contribution of 100 μM SNP to the total relaxation: 24.7 ± 5.5^ %
  SNP: Relaxation induced by 100 μM SNP after stable response to 100 μM carbachol: 0.21 ± 0.06 g
  Tot. relax: Relaxation induced by 100 μM carbachol followed by 100 μM SNP: 0.81 ± 0.09 g
[1]; normoglycemic rats consuming erythritol (NE), 1 g/kg/day, FIG. 1
  Effect on carbachol concentration-response curve (in words): did not have a significant effect
[2]
  Inhibition of AAPH-induced hemolysis (in words): inhibited hemolysis in a concentration-dependent manner
  Lagtime (t50, time to reach 50% hemolysis) of AAPH-induced hemolysis (in words): concentration-dependently shifted the curve to the right; also recorded: concentration-dependent increase
[3]
  Increase in the expression of SOD2 as determined by qPCR: 9.4 fold
[4]; after administration
  Time until excretion with the urine is complete: about 3 days
[4]; in vivo
  Systemic metabolism (in words): not systemically metabolized
[4]; oral
  Absorption from the gut (in words): rapidly and virtually completely absorbed
[5]; [8]
  Well tolerated bolus (single) dose: up to 50 grams
  Well tolerated daily dose: up to 80 grams
[5]; clinical testing, oral consumption, listed as Erythritol
  Well tolerated bolus (single) dose: ≤ 50 grams
[5]; even after consumption of large quantities
  Digestive side-effects (in words): no digestive side-effects
